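Cells were grown in 96-well plates and exposed to each compound for 48 hours at five concentrations; endpoints were interpolated linearly between bracketing concentrations, or set to the highest concentration if not reached. GI50 is the concentration that inhibits growth by half. TGI: total growth inhibition.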

Some test systems named below: NCI-H23 lung; NCI-H460 lung; UACC-257 melanoma; RXF 393 renal; HS 578T breast; NCI/ADR-RES ovarian; NCI-H226 lung; HCC-2998 colon.
Common to all, as to experiment: growth of human tumour cells (NCI), 48 h

Regarding `CN1C(=O)C(c2c[nH]c3ccccc23)=C(c2c(-c3c[nH]c4ccccc34)[nH]c3ccccc23)C1=O`, the GI50 in the assay on NCI-H23 lung was 1.7 µM; with NCI-H460 lung, 3.31 µM; in the assay with UACC-257 melanoma, 3.59 µM; with RXF 393 renal, 1.64 µM; in the assay with HS 578T breast, 3 µM; with NCI/ADR-RES ovarian it was 14.7 µM. Also, the TGI came out at 4.72 µM in the assay with NCI-H23 lung; 15.8 µM in the assay on NCI-H460 lung; 13.2 µM in the assay with UACC-257 melanoma; 6.07 µM with RXF 393 renal; 13.6 µM in the assay on HS 578T breast; 42.8 µM in the assay on NCI/ADR-RES ovarian.

As for `Oc1ccc(CN(Cc2ccc(C(F)(F)F)cc2)Cc2ccc(O)c3ncccc23)c2cccnc12`, the GI50 is 0.0245 µM in the assay with NCI-H23 lung; less than 0.01 µM in the assay on NCI-H460 lung; 0.0485 µM with RXF 393 renal; 0.0512 µM in the assay on NCI-H226 lung; 0.0496 µM in the assay on HCC-2998 colon; 0.0438 µM with HS 578T breast. Also, in the assay on NCI/ADR-RES ovarian, the GI50 was less than 0.01 µM. Moreover, the TGI in the assay with NCI-H23 lung is more than 100 µM; in the assay with NCI-H460 lung it was 0.111 µM; in the assay on NCI-H226 lung, 11.7 µM; with HCC-2998 colon, more than 100 µM; with HS 578T breast, more than 100 µM; in the assay with NCI/ADR-RES ovarian, more than 100 µM.

Turning to `OCc1ccc(Oc2c3ccccc3nc3occc23)cc1`, the GI50 in the assay on NCI-H23 lung was 17.9 µM; in the assay with NCI-H460 lung, 20.8 µM; with UACC-257 melanoma, 30 µM; in the assay on RXF 393 renal, 4.7 µM; in the assay with HS 578T breast, 54.8 µM; in the assay on NCI/ADR-RES ovarian it was 20.2 µM. Also, the TGI is 40.3 µM in the assay on NCI-H23 lung; 68 µM in the assay on NCI-H460 lung; 74.7 µM in the assay on UACC-257 melanoma; 23.2 µM in the assay on RXF 393 renal; more than 100 µM in the assay on HS 578T breast; 49 µM with NCI/ADR-RES ovarian.

Take `NC1=NC(c2ccc(F)cc2)C2=C(N1)c1ccc3ccccc3c1OCC2` (centres undefined): the GI50 was 50.7 µM with NCI-H23 lung; 6.96 µM in the assay with NCI-H460 lung; 34.2 µM with UACC-257 melanoma; 18.7 µM in the assay on RXF 393 renal; 9.57 µM in the assay on NCI-H226 lung; 11.4 µM in the assay on HS 578T breast. Also, in the assay with NCI/ADR-RES ovarian, the GI50 was 43.2 µM. Further, the TGI in the assay on NCI-H23 lung was more than 100 µM; in the assay with NCI-H460 lung, more than 100 µM; in the assay on UACC-257 melanoma, more than 100 µM; in the assay on RXF 393 renal it was more than 100 µM; in the assay with NCI-H226 lung, 57.4 µM; in the assay with HS 578T breast it was more than 100 µM. The same compound gave a TGI in the assay on NCI/ADR-RES ovarian of more than 100 µM.

Take `COc1ccc(-c2csc3c2-n2cccc2C3=O)cc1O`: the GI50 with NCI-H23 lung is 0.056 µM; with NCI-H460 lung, 0.0375 µM; in the assay with UACC-257 melanoma it was 1.36 µM; in the assay on NCI-H226 lung, 12.1 µM; in the assay with HCC-2998 colon it was 0.454 µM; with HS 578T breast it was less than 0.0165 µM. In addition, in the assay with NCI/ADR-RES ovarian, the GI50 is 0.0143 µM. Further, the TGI was more than 42.4 µM in the assay with NCI-H23 lung; 13.1 µM with NCI-H460 lung; more than 100 µM in the assay on UACC-257 melanoma; more than 46.6 µM with NCI-H226 lung; 8.71 µM in the assay on HCC-2998 colon; more than 100 µM with HS 578T breast. The same compound showed a TGI in the assay with NCI/ADR-RES ovarian of more than 100 µM.

As for `NC(N)=N/N=C/c1c(-c2ccc(Cl)c([N+](=O)[O-])c2)nc2ccccn12`, the GI50 was 1.92 µM with NCI-H23 lung; 6.76 µM with UACC-257 melanoma; 1.5 µM in the assay on HCC-2998 colon; 24.2 µM in the assay on HS 578T breast; more than 100 µM in the assay on NCI/ADR-RES ovarian. Besides, the TGI in the assay with NCI-H23 lung was 3.95 µM; in the assay with UACC-257 melanoma it was 31 µM; in the assay with HCC-2998 colon, 3.1 µM; in the assay on HS 578T breast, 60.2 µM; with NCI/ADR-RES ovarian, more than 100 µM.

On to `O=[N+]([O-])c1cccc(-c2cc(-c3cc(Br)ccc3O)[nH]n2)c1`, for which the GI50 is 2.06 µM in the assay with NCI-H23 lung; 1.9 µM in the assay on NCI-H460 lung; 2.5 µM in the assay with UACC-257 melanoma; 3.66 µM with NCI-H226 lung; 2.96 µM with HCC-2998 colon; 2.15 µM in the assay on HS 578T breast. Further, in the assay on NCI/ADR-RES ovarian, the GI50 is 3.11 µM. Moreover, the TGI in the assay on NCI-H23 lung was 6.11 µM; in the assay with NCI-H460 lung it was 10.4 µM; in the assay with UACC-257 melanoma, 6.49 µM; with NCI-H226 lung, 27.2 µM; in the assay on HCC-2998 colon, 12.1 µM; with HS 578T breast, 9.29 µM. The compound also showed a TGI in the assay with NCI/ADR-RES ovarian of 8.94 µM.

Turning to `COc1ccc(/C=C\c2cc(OC)c(OC)c(OC)c2)cc1OCC(=O)Nc1nc2ccc(OC(F)(F)F)cc2s1`, the GI50 is 4.39 µM in the assay on NCI-H23 lung; 4.11 µM in the assay on NCI-H460 lung; 89.2 µM with UACC-257 melanoma; 4.3 µM in the assay on NCI-H226 lung; 17.1 µM in the assay with HCC-2998 colon; 4.33 µM with HS 578T breast. Further, in the assay with NCI/ADR-RES ovarian, the GI50 is 2.7 µM. The TGI was more than 100 µM in the assay on NCI-H23 lung; more than 100 µM in the assay with NCI-H460 lung; more than 100 µM in the assay on UACC-257 melanoma; 62.2 µM in the assay on NCI-H226 lung; more than 100 µM with HCC-2998 colon; more than 100 µM in the assay on HS 578T breast. For the same compound, the TGI in the assay with NCI/ADR-RES ovarian came out at 8.62 µM.

Take `CCCCCCN1CCN(Cc2ccc(N(CC)CC)cc2)C(=O)C1=O`: the GI50 with NCI-H23 lung is 4.05 µM; in the assay on NCI-H460 lung, 3.35 µM; in the assay on UACC-257 melanoma it was 16.9 µM; with NCI-H226 lung, 5.84 µM; in the assay on HCC-2998 colon, 6.45 µM; in the assay with HS 578T breast it was 3.14 µM. Further, the GI50 in the assay on NCI/ADR-RES ovarian was 2.72 µM. The TGI in the assay with NCI-H23 lung is 62.5 µM; in the assay on NCI-H460 lung it was 17.3 µM; with UACC-257 melanoma, more than 100 µM; with NCI-H226 lung it was 27.8 µM; in the assay on HCC-2998 colon it was 28.2 µM; with HS 578T breast it was 27.7 µM.

In the case of `COc1cc2c3c(n(C)c(=O)c2cc1OC)-c1cc2c(cc1/C3=C/[C@H](N)CCCCN)OCO2`, the GI50 with NCI-H23 lung is 2.52 µM; in the assay with NCI-H460 lung, 0.196 µM; in the assay with UACC-257 melanoma it was 1.98 µM; in the assay on RXF 393 renal, 3.45 µM; with HS 578T breast it was 2.52 µM; in the assay with NCI/ADR-RES ovarian, 5.19 µM. The TGI in the assay on NCI-H23 lung is 21.9 µM; in the assay with NCI-H460 lung, 1.62 µM; in the assay on UACC-257 melanoma it was 11.1 µM; with RXF 393 renal it was 12.7 µM; in the assay on HS 578T breast it was 17.4 µM; in the assay with NCI/ADR-RES ovarian it was more than 27.1 µM.

On to `CN(C)CCNC(=O)c1nc([N+](=O)[O-])cn1C`, for which the TGI in the assay with NCI-H23 lung, in the assay with NCI-H460 lung, in the assay on UACC-257 melanoma, with HCC-2998 colon, in the assay on HS 578T breast and in the assay with NCI/ADR-RES ovarian was more than 100 µM throughout.

These data come from PubChem BioAssay (NCI).
